Laboratory results published in patent US10072017B2, “Compounds and methods for the treatment of cystic fibrosis” (Flatley Discovery Lab, LLC, priority 2015, dated 2018).

Biological target: T1, CFTR (Homo sapiens, UniProt P13569, DEL508-508)
T1 construct: Primary CF airway epithelial cells were obtained from the UNC Cystic Fibrosis Tissue Procurement and Cell Culture Core; host or cells: primary CF airway epithelial cells
Experiment: Equivalent current assay in Primary CF airway epithelial cells (NAUC)
Assay type: cell-based
Settings: 24 h, normalized to VX809 (3 μM) positive control; for Nauc @ 3 μM: 3 μM test compound; for Nauc @ 10 μM: 10 μM test compound
How it was run: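 Primary CF airway epithelia differentiated ≥4 weeks at air-liquid interface, treated basolaterally 24 h at 37 °C with test compounds in combination with VX809, 0.1% DMSO vehicle. Equivalent current recorded after 5 μM benzamil, 10 μM forskolin plus 1 μM VX770, then CFTR-172/bumetanide 20 μM; vehicle-subtracted AUC normalized to 3 μM VX809 (NAUC), median of n≥4, sigmoid fit for EC50.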

T1 sequence (P13569 with tags, fused parts or gaps DEL508-508): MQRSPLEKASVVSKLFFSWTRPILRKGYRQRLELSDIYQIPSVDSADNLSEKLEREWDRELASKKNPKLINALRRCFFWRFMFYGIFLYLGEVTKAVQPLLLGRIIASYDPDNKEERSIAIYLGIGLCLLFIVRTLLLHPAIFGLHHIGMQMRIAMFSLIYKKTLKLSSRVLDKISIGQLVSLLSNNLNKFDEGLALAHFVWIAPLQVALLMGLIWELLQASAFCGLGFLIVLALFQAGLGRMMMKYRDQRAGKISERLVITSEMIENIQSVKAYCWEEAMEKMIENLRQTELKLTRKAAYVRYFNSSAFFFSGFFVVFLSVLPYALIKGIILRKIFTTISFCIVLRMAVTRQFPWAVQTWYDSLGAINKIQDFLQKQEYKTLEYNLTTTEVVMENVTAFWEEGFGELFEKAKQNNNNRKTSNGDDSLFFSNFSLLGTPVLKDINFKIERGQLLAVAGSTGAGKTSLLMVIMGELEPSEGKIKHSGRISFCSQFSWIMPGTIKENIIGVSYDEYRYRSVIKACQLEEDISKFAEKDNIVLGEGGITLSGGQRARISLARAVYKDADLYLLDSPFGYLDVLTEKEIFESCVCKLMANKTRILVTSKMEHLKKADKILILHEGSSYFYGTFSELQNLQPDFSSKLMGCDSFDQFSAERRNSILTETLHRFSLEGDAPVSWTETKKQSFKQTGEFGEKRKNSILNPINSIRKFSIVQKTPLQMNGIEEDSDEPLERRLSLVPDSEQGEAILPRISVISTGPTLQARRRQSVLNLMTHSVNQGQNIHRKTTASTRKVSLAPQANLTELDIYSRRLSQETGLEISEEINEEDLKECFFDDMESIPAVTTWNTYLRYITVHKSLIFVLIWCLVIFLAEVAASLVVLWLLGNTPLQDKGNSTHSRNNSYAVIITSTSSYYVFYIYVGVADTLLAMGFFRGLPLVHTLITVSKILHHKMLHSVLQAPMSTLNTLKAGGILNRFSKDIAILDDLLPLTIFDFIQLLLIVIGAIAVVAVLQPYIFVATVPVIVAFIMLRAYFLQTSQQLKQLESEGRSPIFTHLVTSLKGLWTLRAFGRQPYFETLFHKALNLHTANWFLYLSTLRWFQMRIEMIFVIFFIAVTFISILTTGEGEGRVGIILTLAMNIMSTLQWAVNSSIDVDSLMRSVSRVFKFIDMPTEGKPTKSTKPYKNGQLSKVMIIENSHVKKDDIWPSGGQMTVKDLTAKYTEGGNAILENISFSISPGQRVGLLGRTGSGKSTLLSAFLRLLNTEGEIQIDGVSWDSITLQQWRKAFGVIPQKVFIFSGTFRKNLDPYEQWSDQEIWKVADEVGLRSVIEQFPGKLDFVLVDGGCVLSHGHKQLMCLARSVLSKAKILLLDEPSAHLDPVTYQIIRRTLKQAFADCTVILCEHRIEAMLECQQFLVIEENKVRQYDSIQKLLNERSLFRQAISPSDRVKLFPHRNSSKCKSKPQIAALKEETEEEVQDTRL

COc1c(Cl)cc(N2C(=O)C3C4CC(=C(F)F)CN4C4(C(=O)Nc5c(Cl)cc(Cl)cc54)C3C2=O)cc1Cl (stereo not drawn) [Example 121]
Nauc @ 3 μM: ++ (NAUC “++” refers to an observed NAUC 170-140% of positive control)
Nauc @ 10 μM: ++ (NAUC “++” refers to an observed NAUC 170-140% of positive control)

O=C1C2C3CC(=C(F)F)CN3C3(C(=O)Nc4c(Cl)cc(Cl)cc43)C2C(=O)N1c1cc(Cl)cc(Cl)n1 (stereo not drawn) [Example 122]
Nauc @ 3 μM: +++ (NAUC “+++” refers to an observed NAUC >170% of positive control)
Nauc @ 10 μM: + (NAUC “+” refers to an observed NAUC <140% of positive control)

O=C1C2C3CC(=C(F)F)CN3C3(C(=O)Nc4c(Cl)cc(Cl)cc43)C2C(=O)N1c1cc(Br)cc(Br)c1 (stereo not drawn) [Example 123]
Nauc @ 3 μM: + (NAUC “+” refers to an observed NAUC <140% of positive control)
Nauc @ 10 μM: +++ (NAUC “+++” refers to an observed NAUC >170% of positive control)

O=C1C2C3CC(=C(F)F)CN3C3(C(=O)Nc4c(Cl)cc(Cl)cc43)C2C(=O)N1c1cc(F)cc(Cl)c1 (stereo not drawn) [Example 124]
Nauc @ 3 μM: + (NAUC “+” refers to an observed NAUC <140% of positive control)
Nauc @ 10 μM: ++ (NAUC “++” refers to an observed NAUC 170-140% of positive control)

O=C1C2C3CC(=C(F)F)CN3C3(C(=O)Nc4c(Cl)cc(Cl)cc43)C2C(=O)N1c1cc(C(F)(F)F)cc(C(F)(F)F)c1 (stereo not drawn) [Example 125]
Nauc @ 3 μM: +++ (NAUC “+++” refers to an observed NAUC >170% of positive control)
Nauc @ 10 μM: + (NAUC “+” refers to an observed NAUC <140% of positive control)

O=C1C2C3CC(=C(F)F)CN3C3(C(=O)Nc4c(Cl)cc(Cl)cc43)C2C(=O)N1c1cccc(C(F)(F)F)c1 (stereo not drawn) [Example 126]
Nauc @ 3 μM: +++ (NAUC “+++” refers to an observed NAUC >170% of positive control)
Nauc @ 10 μM: +++ (NAUC “+++” refers to an observed NAUC >170% of positive control)

COc1cc(Cl)cc(N2C(=O)C3C4CC(C)(C)CN4C4(C(=O)Nc5c(Cl)cc(Cl)cc54)C3C2=O)c1 (stereo not drawn) [Example 127]
Nauc @ 3 μM: ++ (NAUC “++” refers to an observed NAUC 170-140% of positive control)
Nauc @ 10 μM: + (NAUC “+” refers to an observed NAUC <140% of positive control)

Cc1ccc(N2C(=O)C3C4CCCN4C4(C(=O)Nc5c(C)cccc54)C3C2=O)c(Cl)c1 (stereo not drawn) [Example 128]
Nauc @ 3 μM: ++ (NAUC “++” refers to an observed NAUC 170-140% of positive control)
Nauc @ 10 μM: + (NAUC “+” refers to an observed NAUC <140% of positive control)

CC1(C)CC2C3C(=O)N(c4cc(Cl)cc(Cl)n4)C(=O)C3C3(C(=O)Nc4c(Cl)cc(Cl)cc43)N2C1 (stereo not drawn) [Example 129]
Nauc @ 3 μM: ++ (NAUC “++” refers to an observed NAUC 170-140% of positive control)
Nauc @ 10 μM: ++ (NAUC “++” refers to an observed NAUC 170-140% of positive control)

COc1cc(Cl)cc(N2C(=O)C3C4CC(C(F)F)CN4C4(C(=O)Nc5c(Cl)cc(Cl)cc54)C3C2=O)c1 (stereo not drawn) [Example 130]
Nauc @ 3 μM: + (NAUC “+” refers to an observed NAUC <140% of positive control)
Nauc @ 10 μM: ++ (NAUC “++” refers to an observed NAUC 170-140% of positive control)

O=C1C2C3CC(C(F)F)CN3C3(C(=O)Nc4c(Cl)cc(Cl)cc43)C2C(=O)N1c1cc(Cl)cc(Cl)n1 (stereo not drawn) [Example 131]
Nauc @ 3 μM: + (NAUC “+” refers to an observed NAUC <140% of positive control)
Nauc @ 10 μM: ++ (NAUC “++” refers to an observed NAUC 170-140% of positive control)

O=C1C2C3CC(C(F)F)CN3C3(C(=O)Nc4c(Cl)cc(Cl)cc43)C2C(=O)N1c1cc(Cl)nc(Cl)c1 (stereo not drawn) [Example 132]
Nauc @ 3 μM: + (NAUC “+” refers to an observed NAUC <140% of positive control)
Nauc @ 10 μM: ++ (NAUC “++” refers to an observed NAUC 170-140% of positive control)

O=C1C2C3CC(C(F)F)CN3C3(C(=O)Nc4c(Cl)cc(Cl)cc43)C2C(=O)N1c1cc(F)cc(Cl)c1 (stereo not drawn) [Example 133]
Nauc @ 3 μM: ++ (NAUC “++” refers to an observed NAUC 170-140% of positive control)
Nauc @ 10 μM: ++ (NAUC “++” refers to an observed NAUC 170-140% of positive control)

O=C1C2C3CC(C(F)F)CN3C3(C(=O)Nc4c(Cl)cc(Cl)cc43)C2C(=O)N1c1cccc(C(F)(F)F)c1 (stereo not drawn) [Example 134]
Nauc @ 3 μM: + (NAUC “+” refers to an observed NAUC <140% of positive control)
Nauc @ 10 μM: ++ (NAUC “++” refers to an observed NAUC 170-140% of positive control)

CC(=O)N[C@H]1CC2C3C(=O)N(c4cc(Cl)cc(Cl)c4)C(=O)C3C3(C(=O)Nc4c(Cl)cc(Cl)cc43)N2C1 (stereo partly drawn) [Example 135]
Nauc @ 3 μM: +++ (NAUC “+++” refers to an observed NAUC >170% of positive control)
Nauc @ 10 μM: + (NAUC “+” refers to an observed NAUC <140% of positive control)

O=C1C2C3CC(C(F)F)CN3C3(C(=O)Nc4c(Cl)cc(Cl)cc43)C2C(=O)N1c1cc(Cl)cc(Cl)c1 (stereo not drawn) [Example 136]
Nauc @ 3 μM: +++ (NAUC “+++” refers to an observed NAUC >170% of positive control)
Nauc @ 10 μM: +++ (NAUC “+++” refers to an observed NAUC >170% of positive control)

O=C1C2C3CC(C(F)F)CN3C3(C(=O)Nc4c(Cl)cc(Cl)cc43)C2C(=O)N1c1cc(Cl)cc(Cl)c1 (stereo not drawn) [Example 137]
Nauc @ 3 μM: +++ (NAUC “+++” refers to an observed NAUC >170% of positive control)
Nauc @ 10 μM: +++ (NAUC “+++” refers to an observed NAUC >170% of positive control)

[2H]C12C(=O)N(c3cc(Cl)cc(OC)c3)C(=O)C1([2H])C1(C(=O)Nc3c(Cl)cc(Cl)cc31)N1C[C@@H](F)CC12 (stereo partly drawn) [Example 145]
Nauc @ 3 μM: + (NAUC “+” refers to an observed NAUC <140% of positive control)
Nauc @ 10 μM: +++ (NAUC “+++” refers to an observed NAUC >170% of positive control)

[2H]C12C(=O)N(c3cc(Cl)cc(OC)c3)C(=O)C1([2H])C1(C(=O)Nc3c(Cl)cc(Cl)cc31)N1C[C@@H](Cl)CC12 (stereo partly drawn) [Example 146]
Nauc @ 3 μM: +++ (NAUC “+++” refers to an observed NAUC >170% of positive control)
Nauc @ 10 μM: +++ (NAUC “+++” refers to an observed NAUC >170% of positive control)

[2H]C12C(=O)N(c3cc(Cl)cc(Cl)c3)C(=O)C1([2H])C1(C(=O)Nc3c(Cl)cc(Cl)cc31)N1CC(C)(C)CC12 (stereo not drawn) [Example 147]
Nauc @ 3 μM: +++ (NAUC “+++” refers to an observed NAUC >170% of positive control)
Nauc @ 10 μM: +++ (NAUC “+++” refers to an observed NAUC >170% of positive control)

[2H]C12C(=O)N(c3cc(Cl)c(OC)c(Cl)c3)C(=O)C1([2H])C1(C(=O)Nc3c(Cl)cc(Cl)cc31)N1C[C@@H](Cl)CC12 (stereo partly drawn) [Example 148]
Nauc @ 3 μM: +++ (NAUC “+++” refers to an observed NAUC >170% of positive control)
Nauc @ 10 μM: +++ (NAUC “+++” refers to an observed NAUC >170% of positive control)
